The structures appear in SMILES notation. ≈ marks a conversion by molar mass, not a printed value. Where two headings read alike, the source gives them in different places.

For data set [1], the system named is Mtb H37Rv (ATCC27294). Put plainly: Antimycobacterial activity, microplate Alamar blue assay (MABA). It counts as cell-based, Mycobacterium tuberculosis. (The colour change of resazurin is a common sign of viable cells or microbes.)
Data set [2] concerns C. albicans (ATCC90028). Put plainly: Antifungal activity, broth microdilution. It counts as cell-based, Candida albicans. The note with it: Candida albicans ATCC 90028, read-out: MIC. How it is done: (§1) All synthesized compounds and the positive control drugs amphotericin B and ketoconazole were tested for their in vitro antifungal activity. Antifungal activity was evaluated against four fungi, C. albicans (ATCC90028), C. tropicalis (ATCC7349), A. fumigatus (3.5352), and C. neoformans (2.3201), by broth microdilution according to the protocols from the NCCLS (Jiang et al., [2014]). Briefly, all tested compounds were dissolved in DMSO, and the solutions were diluted with fresh broth medium. All of the fungi-seeded broth (1 × 10^5 colony-forming units [CFU]/mL) were prepared in RPMI 1640 medium and added into the serially diluted drug solution. The tubes were incubated at 28°C, and the MIC (μg/mL) was recorded 72–96 h post-incubation. Broth control (without fungi), growth controls (with fungi and without drug), solvent (DMSO) control, and drug control for both test drugs and standard drugs were set under identical conditions. The minimum drug concentration in the tubes in which no apparent growth of the organism was observed represented the MIC of the compounds.
Background: In broth dilution the organism is exposed to a series of concentrations in liquid medium.

In data set [3] the test system is A. fumigatus (3.5352). Description: Antifungal activity, broth microdilution. Type of data set: cell-based. The settings on record: Aspergillus fumigatus; A. fumigatus 3.5352; read-out: MIC. How it is done: as §1
Data set [4] deals with C. tropicalis (ATCC7349). Description: Antifungal activity, broth microdilution. The note with it: Candida tropicalis, C. tropicalis ATCC 7349, read-out: MIC. Type of data set: cell-based. How it is done:
as §1

In data set [5] the test system is C. neoformans (2.3201). Put plainly: Antifungal activity, broth microdilution. It counts as cell-based. The note with it: Cryptococcus neoformans; C. neoformans 2.3201; read-out: MIC. How it is done:
as §1

[6] abbreviates: Mycobacterium tuberculosis, Mtb H37Rv, MABA assay, read-out: MIC.
Setting [7] is: Mycobacterium tuberculosis, Mtb H37Rv, repeated in Table 5 for the 3D-QSAR models, read-out: MIC.
Where [8] appears, read: Mycobacterium tuberculosis, experimental pMIC, Mtb H37Rv, Table 5, read-out: pMIC exp (converted).

In the case of `Cc1ccc(N2C(=O)CSC2c2c[n+]([O-])c3ccccc3[n+]2[O-])cc1` (stereo not shown) [2b, 2-(3′-P-methylphenyl-4′(5H)-thiazolidinone)-quinoxaline-1,4-di-N-oxide], the melting point (usually the temperature, or range, at which the solid turns liquid) was in the range of 251 to 253 °C. Moreover, the MIC in data set [1] (setting [6]) stood at 12.5 µg/mL. Also, the MIC in data set [1] (setting [7]) was found to be 12.5 µg/mL. For the same compound, in data set [1] (setting [8]), the MIC was 35.4 µM. The MIC in data set [2] amounted to 16 µg/mL (≈ 45.3 µM). The MIC in data set [3] came out at 32 µg/mL (≈ 90.5 µM). Further, the MIC in data set [4] came to 8 µg/mL (≈ 22.6 µM). The MIC in data set [5] came out at 32 µg/mL (≈ 90.5 µM).

Turning to `COc1ccc(N2C(=O)CSC2c2c[n+]([O-])c3ccccc3[n+]2[O-])cc1` (stereo not shown) [2c, 2-(3′-P-methoxyphenyl-4′(5H)-thiazolidinone)-quinoxaline-1,4-di-N-oxide], the melting point was 255 to 257 °C. Further, the MIC in data set [1] (setting [6]) was found to be 12.5 µg/mL. Further, in data set [1] (setting [7]), the MIC turned out to be 12.5 µg/mL. Moreover, the MIC in data set [1] (setting [8]) is 33.9 µM. The MIC in data set [2] is 64 µg/mL (≈ 173 µM). In data set [3], the MIC is more than 64 µg/mL. Moreover, in data set [4], the MIC came to 32 µg/mL (≈ 86.6 µM). Further, the MIC in data set [5] was found to be 32 µg/mL (≈ 86.6 µM).

`O=C1CSC(c2c[n+]([O-])c3ccccc3[n+]2[O-])N1C1CC1` (stereo not shown) [2f, 2-(3′-cyclopropyl-4′(5H)-thiazolidinone)-quinoxaline-1,4-di-N-oxide] had a melting point of 249 to 252 °C. Besides, in data set [1] (setting [6]), the MIC came out at 25 µg/mL. Further, in data set [1] (setting [7]), the MIC stood at 25 µg/mL. Besides, the MIC in data set [1] (setting [8]) was 82.4 µM. For the same compound, the MIC in data set [2] worked out at 32 µg/mL (≈ 105 µM). Further, the MIC in data set [3] came out at 64 µg/mL (≈ 211 µM). Besides, the MIC in data set [4] worked out at 16 µg/mL (≈ 52.7 µM). The MIC in data set [5] came out at 64 µg/mL (≈ 211 µM).

On to `Cc1ccc2c(c1)[n+]([O-])c(C1SCC(=O)N1c1ccccc1)c[n+]2[O-]` (stereo not shown) [2g, 7-CH3-2-(3′-phenyl-4′(5H)-thiazolidinone)-quinoxaline-1,4-di-N-oxide], for which the melting point is 255 to 257 °C. Moreover, in data set [1] (setting [6]), the MIC came to 12.5 µg/mL. Moreover, the MIC in data set [1] (setting [7]) amounted to 12.5 µg/mL. Besides, the MIC in data set [1] (setting [8]) was 35.4 µM. Also, the MIC in data set [2] is 32 µg/mL (≈ 90.5 µM). The MIC in data set [3] amounted to 32 µg/mL (≈ 90.5 µM). Also, in data set [4], the MIC was determined as 16 µg/mL (≈ 45.3 µM). For the same compound, the MIC in data set [5] is 32 µg/mL (≈ 90.5 µM).

In turn, `Cc1ccc(N2C(=O)CSC2c2c[n+]([O-])c3ccc(C)cc3[n+]2[O-])cc1` (stereo not shown) [2h, 7-CH3-2-(3′-P-methylphenyl-4′(5H)-thiazolidinone)-quinoxaline-1,4-di-N-oxide] had a melting point of 257 to 259 °C. Moreover, the MIC in data set [1] (setting [6]) was 25 µg/mL. In data set [1] (setting [7]), the MIC is 25 µg/mL. Also, the MIC in data set [1] (setting [8]) was 68.1 µM. In data set [2], the MIC was 32 µg/mL (≈ 87.1 µM). Also, in data set [3], the MIC turned out to be 64 µg/mL (≈ 174 µM). In addition, the MIC in data set [4] worked out at 8 µg/mL (≈ 21.8 µM). Further, the MIC in data set [5] worked out at 32 µg/mL (≈ 87.1 µM).

On to `COc1ccc(N2C(=O)CSC2c2c[n+]([O-])c3ccc(C)cc3[n+]2[O-])cc1` (stereo not shown) [2i, 7-CH3-2-(3′-P-methoxyphenyl-4′(5H)-thiazolidinone)-quinoxaline-1,4-di-N-oxide], for which the melting point lay in the range of 255 to 259 °C. Besides, in data set [1] (setting [6]), the MIC was determined as 50 µg/mL. Also, the MIC in data set [1] (setting [7]) was 50 µg/mL. The MIC in data set [1] (setting [8]) is 131 µM. The MIC in data set [2] is 64 µg/mL (≈ 167 µM). In data set [3], the MIC is more than 64 µg/mL. The MIC in data set [4] is 32 µg/mL (≈ 83.5 µM). Also, the MIC in data set [5] stood at 16 µg/mL (≈ 41.7 µM).

For the compound `CO[C@H]1/C=C/O[C@@]2(C)Oc3c(C)c(O)c4c(O)c(c(/C=N/N5CCN(C)CC5)c(O)c4c3C2=O)NC(=O)/C(C)=C\C=C\[C@H](C)[C@H](O)[C@@H](C)[C@@H](O)[C@@H](C)[C@H](OC(C)=O)[C@@H]1C` [RMP, Rifampicin, reference compound], the MIC in data set [1] (Mycobacterium tuberculosis) was determined as 0.125 µg/mL.

`N=C1NC(=O)/C(=C/c2c[n+]([O-])c3ccccc3[n+]2[O-])S1` [V, 2-(2′-iminothiazolidin-4′-one)-quinoxaline-1,4-di-N-oxide]: the MIC in data set [1] (Mtb H37Rv, MABA assay) is more than 50 µg/mL; in data set [1] (setting [6]), more than 50 µg/mL.

In the case of `O=C1CSC(c2c[n+]([O-])c3ccccc3[n+]2[O-])N1` (stereo not shown) [VI, 2-(4'(5H)-thiazolone)-quinoxaline-1,4-di-N-oxide], the MIC in data set [1] (setting [6]) is 6.25 µg/mL.

The values are drawn from publication PMC7424068, “Design, Synthesis, and Biological Evaluation of Novel Thiazolidinone-Containing Quinoxaline-1,4-di-N-oxides as Antimycobacterial and Antifungal Agents” (Frontiers in Chemistry, 2020).
